Each block holds one compound with its values, some of them ahead of it.
Legend:
ErbB2 WT = ErbB2 WT (Homo sapiens (Human), UniProt P04626); assay: ErbB Enzyme Assay (HTRF KinEASE-TK), Assay 2; assay type: biochemical
EGFR = EGFR (Homo sapiens (Human), UniProt P00533); assay: ErbB Enzyme Assay (HTRF KinEASE-TK), Assay 3; assay type: biochemical
[1] = biological target: ErbB2 with Exon 20 YVMA insertion (HER2-YVMA) (Homo sapiens (Human), UniProt P04626, INS775YVMA); assay: Cellular Phosphorylation Assay, Assay 4 (constitutive ErbB2 phosphorylation, NIH 3T3 cells); assay type: cell-based
EGFR wild type (EGFR WT) = EGFR wild type (EGFR WT) (Homo sapiens (Human), UniProt P00533); assay: Cellular Phosphorylation Assay, Assay 5 (EGF-stimulated EGFR phosphorylation, NIH 3T3 cells); assay type: cell-based
Sequence of EGFR wild type (EGFR WT) (P00533 25-1210): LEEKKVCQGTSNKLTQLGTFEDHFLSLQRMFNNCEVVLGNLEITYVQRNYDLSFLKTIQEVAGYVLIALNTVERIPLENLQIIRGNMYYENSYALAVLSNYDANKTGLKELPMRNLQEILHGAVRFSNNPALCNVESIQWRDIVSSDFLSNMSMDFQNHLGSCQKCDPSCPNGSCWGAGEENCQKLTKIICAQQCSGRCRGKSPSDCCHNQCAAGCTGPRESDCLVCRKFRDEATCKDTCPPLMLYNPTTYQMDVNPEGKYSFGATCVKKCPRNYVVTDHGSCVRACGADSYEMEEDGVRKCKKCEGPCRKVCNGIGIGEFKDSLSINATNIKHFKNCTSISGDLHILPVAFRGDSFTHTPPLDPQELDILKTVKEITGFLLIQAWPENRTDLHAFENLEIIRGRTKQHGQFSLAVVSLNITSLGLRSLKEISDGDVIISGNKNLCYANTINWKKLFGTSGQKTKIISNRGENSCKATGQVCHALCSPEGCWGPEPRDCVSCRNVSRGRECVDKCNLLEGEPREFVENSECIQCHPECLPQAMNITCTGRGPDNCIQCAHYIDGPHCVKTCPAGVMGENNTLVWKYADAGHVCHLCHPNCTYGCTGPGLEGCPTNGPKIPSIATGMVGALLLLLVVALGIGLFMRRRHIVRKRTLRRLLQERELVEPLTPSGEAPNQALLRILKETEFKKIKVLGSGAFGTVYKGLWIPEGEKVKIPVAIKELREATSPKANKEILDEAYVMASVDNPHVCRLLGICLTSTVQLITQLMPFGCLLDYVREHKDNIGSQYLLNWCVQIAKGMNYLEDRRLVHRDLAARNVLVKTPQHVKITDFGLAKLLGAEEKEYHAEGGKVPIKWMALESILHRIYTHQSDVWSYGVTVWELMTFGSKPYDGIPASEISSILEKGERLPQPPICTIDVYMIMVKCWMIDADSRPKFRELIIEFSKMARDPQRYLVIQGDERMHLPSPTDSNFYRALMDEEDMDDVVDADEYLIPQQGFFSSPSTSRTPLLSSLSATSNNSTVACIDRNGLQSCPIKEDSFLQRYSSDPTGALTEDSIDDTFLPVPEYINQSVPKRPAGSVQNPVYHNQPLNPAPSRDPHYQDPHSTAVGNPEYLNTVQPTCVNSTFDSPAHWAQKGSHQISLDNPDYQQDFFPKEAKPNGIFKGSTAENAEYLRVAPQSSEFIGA

BCRP = BCRP (Homo sapiens (Human), UniProt Q9UNQ0); assay: BCRP MDCKII efflux assay (Assay 7); assay type: in vitro ADME; details: dog; efflux ratio Papp(B-A)/Papp(A-B), BCRP MDCKII cells; read-out: Assay 7 Pe Ratio
Method: Assay conditions included with and without the BCRP-specific inhibitor, KO143, at a concentration of 0.3 μM to ascertain the contribution of BCRP to the efflux value of the test compound.
Final organic concentration in the assay was 1%.

MDR1 (P-gp) = MDR1 (P-gp) (Homo sapiens (Human), UniProt P08183); assay: in vitro; details: pig, LLC-PK1
Sequence of MDR1 (P-gp) (P08183 whole entry): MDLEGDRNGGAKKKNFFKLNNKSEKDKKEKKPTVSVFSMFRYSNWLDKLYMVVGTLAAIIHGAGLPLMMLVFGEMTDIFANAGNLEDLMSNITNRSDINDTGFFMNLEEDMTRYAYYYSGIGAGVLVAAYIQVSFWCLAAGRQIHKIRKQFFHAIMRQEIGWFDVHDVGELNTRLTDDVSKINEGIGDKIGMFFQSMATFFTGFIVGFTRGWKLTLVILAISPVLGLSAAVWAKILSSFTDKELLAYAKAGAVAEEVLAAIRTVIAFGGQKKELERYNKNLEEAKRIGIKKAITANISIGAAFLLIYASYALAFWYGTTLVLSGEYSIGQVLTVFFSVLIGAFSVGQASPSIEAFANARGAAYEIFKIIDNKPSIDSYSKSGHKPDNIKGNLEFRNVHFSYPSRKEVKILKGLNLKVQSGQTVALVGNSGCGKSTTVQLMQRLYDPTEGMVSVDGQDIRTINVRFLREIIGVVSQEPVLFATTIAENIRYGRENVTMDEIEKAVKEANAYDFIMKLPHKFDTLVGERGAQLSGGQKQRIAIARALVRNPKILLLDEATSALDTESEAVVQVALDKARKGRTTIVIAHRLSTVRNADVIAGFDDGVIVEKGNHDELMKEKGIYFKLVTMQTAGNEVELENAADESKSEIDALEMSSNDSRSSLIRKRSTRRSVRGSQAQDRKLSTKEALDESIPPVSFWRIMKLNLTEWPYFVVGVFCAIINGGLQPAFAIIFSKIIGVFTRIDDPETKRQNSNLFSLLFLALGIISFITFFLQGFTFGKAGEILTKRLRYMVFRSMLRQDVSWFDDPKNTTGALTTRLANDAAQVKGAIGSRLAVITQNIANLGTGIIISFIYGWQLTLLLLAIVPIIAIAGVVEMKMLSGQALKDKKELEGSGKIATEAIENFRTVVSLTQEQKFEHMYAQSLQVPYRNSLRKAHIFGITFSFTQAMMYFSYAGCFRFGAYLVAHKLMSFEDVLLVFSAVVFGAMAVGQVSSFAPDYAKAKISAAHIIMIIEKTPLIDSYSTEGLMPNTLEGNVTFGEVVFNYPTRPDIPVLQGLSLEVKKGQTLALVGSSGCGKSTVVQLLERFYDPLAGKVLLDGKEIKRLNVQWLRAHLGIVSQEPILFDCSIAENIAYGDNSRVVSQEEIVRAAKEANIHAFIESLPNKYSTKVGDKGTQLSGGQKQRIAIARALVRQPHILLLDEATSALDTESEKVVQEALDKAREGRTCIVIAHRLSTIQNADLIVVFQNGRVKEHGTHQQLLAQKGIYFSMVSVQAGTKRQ

[2] = cellular ErbB2 YVMA phosphorylation
[3] = cellular EGFR WT phosphorylation, EGF-stimulated
[4] = EGF-stimulated EGFR WT phosphorylation

Sequence of EGFR (P00533 25-1210): as the sequence (P00533 25-1210) above
Sequence of ErbB2 WT (P04626 23-1255): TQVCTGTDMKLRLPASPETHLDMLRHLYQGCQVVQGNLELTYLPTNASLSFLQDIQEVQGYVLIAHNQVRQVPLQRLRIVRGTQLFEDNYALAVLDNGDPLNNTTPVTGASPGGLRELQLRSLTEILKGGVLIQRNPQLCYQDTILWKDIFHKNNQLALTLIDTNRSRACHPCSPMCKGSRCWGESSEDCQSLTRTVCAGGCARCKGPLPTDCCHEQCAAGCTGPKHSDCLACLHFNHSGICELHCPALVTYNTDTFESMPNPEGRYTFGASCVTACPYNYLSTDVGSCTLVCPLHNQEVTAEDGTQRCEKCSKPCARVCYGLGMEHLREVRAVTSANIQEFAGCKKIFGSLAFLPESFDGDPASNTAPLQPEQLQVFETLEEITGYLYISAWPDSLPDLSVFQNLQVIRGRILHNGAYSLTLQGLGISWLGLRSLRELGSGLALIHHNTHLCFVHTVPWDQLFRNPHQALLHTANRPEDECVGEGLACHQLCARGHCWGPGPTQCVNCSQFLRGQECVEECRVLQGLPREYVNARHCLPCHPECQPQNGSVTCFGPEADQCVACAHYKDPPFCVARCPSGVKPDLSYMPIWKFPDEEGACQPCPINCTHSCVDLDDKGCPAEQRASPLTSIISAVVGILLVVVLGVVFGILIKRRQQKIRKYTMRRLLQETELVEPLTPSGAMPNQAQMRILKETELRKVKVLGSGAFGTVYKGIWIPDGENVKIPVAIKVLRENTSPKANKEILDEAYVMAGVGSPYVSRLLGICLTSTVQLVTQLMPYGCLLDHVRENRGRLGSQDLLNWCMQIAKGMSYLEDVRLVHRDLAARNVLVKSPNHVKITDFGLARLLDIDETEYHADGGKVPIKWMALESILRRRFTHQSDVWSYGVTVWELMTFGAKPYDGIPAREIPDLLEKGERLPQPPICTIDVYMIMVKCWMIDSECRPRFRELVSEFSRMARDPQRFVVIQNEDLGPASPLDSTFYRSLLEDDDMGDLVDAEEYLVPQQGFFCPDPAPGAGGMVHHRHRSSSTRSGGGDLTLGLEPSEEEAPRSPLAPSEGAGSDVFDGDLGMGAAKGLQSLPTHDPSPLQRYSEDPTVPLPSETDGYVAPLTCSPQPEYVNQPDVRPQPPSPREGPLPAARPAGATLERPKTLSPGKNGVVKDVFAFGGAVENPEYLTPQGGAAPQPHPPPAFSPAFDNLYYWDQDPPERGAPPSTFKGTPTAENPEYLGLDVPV

Structure (SMILES): C=CC(=O)N1CCN(c2ccc3ncnc(Nc4ccc(Oc5cnc6c(c5)ncn6C)c(C)c4F)c3n2)C[C@H]1C1CC1 [Example 165, (R)-1-(2-cyclopropyl-4-(4-((2-fluoro-3-methyl-4-((3-methyl-3H-imidazo[4,5-b]pyridin-6-yl)oxy)phenyl)amino)pyrido[3,2-d]pyrimidin-6-yl)piperazin-1-yl)prop-2-en-1-one]
IC50 (ErbB2 WT; ErbB2 WT enzyme): 177 nM
IC50 (EGFR; EGFR enzyme): ≥ 10000 nM
IC50 ([1]; ErbB2 YVMA phosphorylation): 15.8 nM
IC50 (EGFR wild type (EGFR WT); [4]): ≥ 5000 nM
efflux ratio at 2 h, 1 µM (BCRP): 1.6
efflux ratio at 2 h, 1 µM (MDR1 (P-gp)): 0.9

Structure (SMILES): C=CC(=O)N1[C@@H]2CC[C@H]1[C@H](c1ccc3ncnc(Nc4ccc(Oc5cnc6c(c5)ncn6C)c(C)c4F)c3n1)C2 [Example 419]
IC50 (ErbB2 WT; ErbB2 WT enzyme assay): 42.3 nM
IC50 (EGFR; EGFR enzyme assay): 1040 nM
IC50 [1, 2]: 21.5 nM
IC50 (EGFR wild type (EGFR WT); [3]): ≥ 5000 nM
efflux ratio at 2 h, 1 µM (BCRP): 2.2
efflux ratio at 2 h, 1 µM (MDR1 (P-gp)): 0.8

Structure (SMILES): C=CC(=O)N1CCC(Sc2ccc3ncnc(Nc4cc(C)c(Oc5ccc6c(c5)ncn6C)cc4F)c3n2)CC1 [Example 64, 1-(4-((4-((2-fluoro-5-methyl-4-((1-methyl-1H-benzo[d]imidazol-5-yl)oxy)phenyl)amino)pyrido[3,2-d]pyrimidin-6-yl)thio)piperidin-1-yl)prop-2-en-1-one]
IC50 (ErbB2 WT; ErbB2 WT enzyme): 37.4 nM
IC50 (EGFR; EGFR enzyme): ≥ 10000 nM
IC50 ([1]; ErbB2 YVMA phosphorylation): 32.9 nM
IC50 (EGFR wild type (EGFR WT); [4]): ≥ 5000 nM
efflux ratio at 2 h, 1 µM (BCRP): 4.2
efflux ratio at 2 h, 1 µM (MDR1 (P-gp)): 2.4

Structure (SMILES): C=CC(=O)N1C[C@H]2CC[C@@H]1C[C@H]2c1ccc2ncnc(Nc3ccc(Oc4ccn5ncnc5c4)c(C)c3F)c2n1 (racemic) [Example 218, rac-1-((1R,4S,5R)-5-(4-((4-([1,2,4]triazolo[1,5-a]pyridin-7-yloxy)-2-fluoro-3-methylphenyl)amino)pyrido[3,2-d]pyrimidin-6-yl)-2-azabicyclo[2.2.2]octan-2-yl)prop-2-en-1-one]
IC50 (ErbB2 WT; ErbB2 WT enzyme): 24.4 nM
IC50 (EGFR; EGFR enzyme): 1420 nM
IC50 ([1]; ErbB2 YVMA phosphorylation): 32.7 nM
IC50 (EGFR wild type (EGFR WT); [4]): ≥ 5000 nM
efflux ratio at 2 h, 1 µM (BCRP): 2.6
efflux ratio at 2 h, 1 µM (MDR1 (P-gp)): 1.4

Structure (SMILES): C=CC(=O)N1CCC(c2ccc3ncnc(Nc4ccc(Oc5ccc6c(c5)ncn6C)c(C)c4F)c3n2)CC12CC2 (stereo not drawn) [Example 128, 1-(7-(4-((2-fluoro-3-methyl-4-((1-methyl-1H-benzo[d]imidazol-5-yl)oxy)phenyl)amino)pyrido[3,2-d]pyrimidin-6-yl)-4-azaspiro[2.5]octan-4-yl)prop-2-en-1-one]
IC50 (ErbB2 WT; ErbB2 WT enzyme): 44.4 nM
IC50 (EGFR; EGFR enzyme): ≥ 10000 nM
IC50 ([1]; ErbB2 YVMA phosphorylation): 27.7 nM
IC50 (EGFR wild type (EGFR WT); [4]): 2620 nM
efflux ratio at 2 h, 1 µM (BCRP): 2.7
efflux ratio at 2 h, 1 µM (MDR1 (P-gp)): 0.6

Structure (SMILES): C=CC(=O)N1C[C@H]2C[C@@H]1CN(c1ccc3ncnc(Nc4ccc(Oc5ccc6c(c5)ncn6C)c(C)c4F)c3n1)C2 [Example 118, 1-((1S,5R)-3-(4-((2-fluoro-3-methyl-4-((1-methyl-1H-benzo[d]imidazol-5-yl)oxy)phenyl)amino)pyrido[3,2-d]pyrimidin-6-yl)-3,6-diazabicyclo[3.2.1]octan-6-yl)prop-2-en-1-one]
IC50 (ErbB2 WT; ErbB2 WT enzyme): 54.1 nM
IC50 (EGFR; EGFR enzyme): 6090 nM
IC50 ([1]; ErbB2 YVMA phosphorylation): 10.1 nM
IC50 (EGFR wild type (EGFR WT); [4]): ≥ 5000 nM
efflux ratio at 2 h, 1 µM (BCRP): 4.1
efflux ratio at 2 h, 1 µM (MDR1 (P-gp)): 2.2

Structure (SMILES): C=CC(=O)N1C[C@H]2C[C@H](c3ccc4ncnc(Nc5ccc(Oc6ccn7ncnc7c6)c(Cl)c5F)c4n3)[C@@H]1C2 [Example 230, 1-((1 S,4S,6S)-6-(4-((4-([1,2,4]triazolo[1,5-a]pyridin-7-yloxy)-3-chloro-2-fluorophenyl)amino)pyrido[3,2-d]pyrimidin-6-yl)-2-azabicyclo[2.2.1]heptan-2-yl)prop-2-en-1-one]
IC50 (ErbB2 WT; ErbB2 WT enzyme): 13.6 nM
IC50 (EGFR; EGFR enzyme): 312 nM
IC50 ([1]; ErbB2 YVMA phosphorylation): 21.4 nM
IC50 (EGFR wild type (EGFR WT); [4]): 996 nM
efflux ratio at 2 h, 1 µM (BCRP): 2.7
efflux ratio at 2 h, 1 µM (MDR1 (P-gp)): 0.8

Further lines, results first:

IC50 (ErbB2 WT; ErbB2 WT enzyme assay): 20 nM
IC50 (EGFR; EGFR enzyme assay): 5070 nM
IC50 [1, 2]: 18.3 nM
IC50 (EGFR wild type (EGFR WT); [3]): 2580 nM
efflux ratio at 2 h, 1 µM (BCRP): 1.1
efflux ratio at 2 h, 1 µM (MDR1 (P-gp)): 1.3
Structure (SMILES): C=CC(=O)N1CCN(c2ccc3ncnc(Nc4ccc(Oc5ccn6ncnc6c5)c(C)c4F)c3n2)C[C@H]1C(C)(C)C [Example 303]

IC50 (ErbB2 WT; ErbB2 WT enzyme assay): 28.3 nM
IC50 (EGFR; EGFR enzyme assay): 848 nM
IC50 [1, 2]: 29.4 nM
IC50 (EGFR wild type (EGFR WT); [3]): 1950 nM
efflux ratio at 2 h, 1 µM (BCRP): 5
efflux ratio at 2 h, 1 µM (MDR1 (P-gp)): 1.3
Structure (SMILES): C=CC(=O)N1C[C@@H](c2ccc3ncnc(Nc4ccc(Oc5ccn6ncnc6c5)c(C)c4F)c3n2)C[C@@H]1C (mixture of isomers) [Example 385]

IC50 (ErbB2 WT; ErbB2 WT enzyme assay): 101 nM
IC50 (EGFR; EGFR enzyme assay): 4830 nM
IC50 [1, 2]: 9.4 nM
IC50 (EGFR wild type (EGFR WT); [3]): 2890 nM
efflux ratio at 2 h, 1 µM (BCRP): 3.8
efflux ratio at 2 h, 1 µM (MDR1 (P-gp)): 1.1
Structure (SMILES): C=CC(=O)N1CCN(c2ccc3ncnc(Nc4ccc(Oc5cnc6c(c5)ncn6C)c(C)c4F)c3n2)C[C@H]1C [Example 433]

IC50 (ErbB2 WT; ErbB2 WT enzyme assay): 9.2 nM
IC50 (EGFR; EGFR enzyme assay): 2720 nM
IC50 [1, 2]: 30 nM
IC50 (EGFR wild type (EGFR WT); [3]): ≥ 5000 nM
efflux ratio at 2 h, 1 µM (BCRP): 5.5
efflux ratio at 2 h, 1 µM (MDR1 (P-gp)): 1.5
Structure (SMILES): C=CC(=O)N1CCCC(c2ccc3ncnc(Nc4ccc(Oc5ccn6ncnc6c5)c(C)c4)c3n2)CC1 (stereo not drawn) [Example 401]

Source: patent US12447153B2, “HER2 mutation inhibitors” (Array BioPharma Inc., priority 2021, dated 2025)
